In article PMC3702004, “Comparison of Intake and Systemic Relative Effect Potencies of Dioxin-like Compounds in Female Mice after a Single Oral Dose” (Environmental Health Perspectives, 2013):

How the values were obtained:
Cyp1b1 mRNA = test: Cyp1b1 gene expression in liver (real-time PCR); type: in vivo, female C57BL/6 mice; conditions: female, C57BL/6, mouse, in vivo; single oral dose, day 3; read-out: Maximum induction of hepatic Cyp1b1 mRNA, of the maximal response of TCDD
Description: Animals. Eight-week-old female C57BL/6 mice (Harlan laboratories, Venray, the Netherlands) were randomly assigned to treatment groups (six animals per group) and allowed to acclimate for 1.5 weeks. The animals were housed in groups in standard cages and conditions (23 ± 2°C, 50–60% relative humidity, 12-hr dark/light cycle) with free access to food and water. Mice received a single dose of test compound by oral gavage at a dosing volume of 10 mL/kg body weight (BW). Mice treated with corn oil vehicle (10 mL/kg BW) served as controls. For each congener, five different doses were administered, ranging from 0.5–100 μg/kg BW (TCDD) to 5,000–500,000 µg/kg BW (PCB-153). Detailed information on doses is provided in Supplemental Material, Table S1 (http://dx.doi.org/10.1289/ehp.1206336). On day 3 after dosing, animals were euthanized by CO2/O2 asphyxiation, and blood was immediately collected from the abdominal aorta. The liver, thymus, spleen, and adipose tissue were removed, weighed (liver, thymus, and spleen), snap frozen, and stored at –80°C. All animal treatments were performed with permission of the Animal Ethical Committee (DEC Utrecht) and performed according to the [Law on Animal Experiments (1977)]. Animals were treated humanely and with regard for alleviation of suffering.
RNA isolation and quantitative real-time polymerase chain reaction (PCR). Total RNA was isolated from liver and PBLs using a QIAGEN RNeasy kit (QIAGEN). Purity and concentration of the isolated RNA was determined by measuring the absorbance ratio at 260/280 nm and 230/260 nm with a Nanodrop 2000 spectrophotometer (Thermo Scientific, Asheville, NC, USA). RNA was reverse transcribed to complementary DNA (cDNA) using the iScript cDNA synthesis Kit (Bio-Rad, Veenendaal, the Netherlands). Quantitative real-time PCR analyses were performed using the iQ Real-Time PCR Detection System with SYBR green (Bio-Rad). Amplification reactions were set up with […] containing 12.5 μL iQ SYBR Green Supermix (Bio-rad), 0.5 μL distilled H2O, 1 μL (10 μM) forward primer, 1 μL (10 μM) reverse primer, and 10 μL first strand cDNA (10X diluted). Primer sequences were as follows: Cyp1a1: forward-5´-GGTTAACCATGACCGGGAACT-3´ and reverse-5´-TGCCCAAACCAAAGAGAGTGA-3´ ([Schulz et al. 2012]); Cyp1a2: forward-5´-ACATTCCCAAGGAGCGCTGTATCT-3´ and reverse-5´-GTCGATGGCCGAGTTGTTATTGGT-3´ ([Flaveny et al. 2010]); Cyp1b1: forward-5´-GTGGCTGCTCATCCTCTTTACC-3´ and reverse-5´-CCCACAACCTGGTCCAACTC-3´ ([Berge et al. 2004]); β-actin: forward-5´-ATGCTCCCCGGGCTGTAT-3´ and reverse-5´-CATAGGAGTCCTTCTGACCCATTC-3´ ([Schulz et al. 2012]). All primers were run through the National Center for Biotechnology Information Primer-BLAST database (http://www.ncbi.nlm.nih.gov/tools/primer-blast/) to confirm specificity and validate for optimal annealing temperature (60°C for all primers) and efficiency. The efficiency of all primer pairs was 98–102% (tested at 60°C). The following program was used for denaturation and amplification of cDNA: 3 min at 95°C, followed by 40 cycles of 15 sec at 95°C and 45 sec at 60°C. Gene expression for each sample was expressed as threshold cycle (Ct), normalized to the reference gene β-actin (ΔCt). We calculated fold induction relative to the control group.
Data analysis. We obtained concentration–response curves using a sigmoidal dose–response nonlinear regression curve fit with variable slope (GraphPad Prism 6.01; GraphPad Software Inc., San Diego, CA, USA):
In this Hill equation, y is the dependent variable (EROD activity or fold induction of mRNA levels), x the independent variable (administered or systemic dose), E0 is the estimated background response level, Emax is the maximum response, b is the estimated median effective concentration (EC50), and n is the shaping parameter of the Hill curve.
Using the congener-specific BMR20TCDD concentration, REPs were calculated relatively to TCDD: […]

[1] = CYP1A2 knockout mice; ref Diliberto et al. 1997; cited from earlier work

Structure (SMILES) | Emax (Cyp1b1 mRNA) [%] | Liver:adipose ratio [1]
Clc1ccc(-c2cc(Cl)c(Cl)cc2Cl)cc1Cl [PCB-118, 2,3´,4,4´,5-pentachlorobiphenyl] | < 0.3 | –
Clc1cc2c(cc1Cl)Oc1cc(Cl)c(Cl)cc1O2 [TCDD, 2,3,7,8-tetrachlorodibenzodioxin, reference compound] | – | < 0.3
